The subject of assay [1] is U937 cells. Briefly: EC50 of necroptosis inhibition in U937 cells (TSZ-induced, CellTiter-Glo). The class given is cell-based. The settings on record: Homo sapiens, U-937; TSZ (hTNF-α, SM-164, Z-VAD-FMK) 20 hours; 10 concentration points; read-out: EC50 intervals of necroptosis inhibition in U937 cells. The method, boiled down: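 U937 cells pretreated 15 min with compound (10-point, 1:3 series), then necroptosis induced by TSZ (hTNF-α, SM-164, Z-VAD-FMK) for 20 h at 37 °C. Viability measured as ATP by CellTiter-Glo luminescence; inhibition normalised to untreated and TSZ-only wells, EC50 from four-parameter fit.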

Assay [2] has as its target T1, RIPK1 kinase (Homo sapiens, UniProt Q13546).
T1 construct: purchased Promega VA7593
T1 sequence (Q13546 1-671): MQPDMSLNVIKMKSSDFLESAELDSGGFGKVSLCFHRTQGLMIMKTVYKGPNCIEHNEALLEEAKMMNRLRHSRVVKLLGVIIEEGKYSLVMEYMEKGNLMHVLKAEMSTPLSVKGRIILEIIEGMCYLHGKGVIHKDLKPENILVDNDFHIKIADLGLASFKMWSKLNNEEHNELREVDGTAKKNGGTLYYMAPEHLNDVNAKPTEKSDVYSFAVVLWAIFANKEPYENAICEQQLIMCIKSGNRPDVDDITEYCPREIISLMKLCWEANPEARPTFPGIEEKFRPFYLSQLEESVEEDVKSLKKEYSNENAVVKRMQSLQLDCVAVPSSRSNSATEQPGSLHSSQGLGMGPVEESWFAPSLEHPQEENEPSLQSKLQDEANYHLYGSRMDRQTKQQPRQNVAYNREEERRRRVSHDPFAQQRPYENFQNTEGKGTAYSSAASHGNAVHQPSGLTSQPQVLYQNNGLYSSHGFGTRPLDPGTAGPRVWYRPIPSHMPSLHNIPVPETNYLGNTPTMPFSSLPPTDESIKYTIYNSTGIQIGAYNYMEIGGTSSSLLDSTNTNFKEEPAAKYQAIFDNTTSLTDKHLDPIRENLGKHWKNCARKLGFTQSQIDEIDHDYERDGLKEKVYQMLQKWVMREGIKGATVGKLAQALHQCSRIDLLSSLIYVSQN
Briefly: In vitro RIPK1 kinase activity assay (ADP-Glo), inhibition by compounds at 1 μM. The class given is biochemical. The conditions noted are these: compound 1 μM; ATP 10 μM; MBP substrate 100 μg/mL; read-out: RIPK1 kinase activity inhibition rate range. In a few lines:
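Compound and RIPK1 were preincubated 15 min at room temperature, then reacted 1 h with 10 μM ATP and 100 μg/mL MBP substrate in kinase buffer D. ADP formed was measured by ADP-Glo luminescence and converted to percent inhibition of kinase activity.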

The test system of assay [3] is U937 cells. Briefly: Inhibition rate of compound (1 μM) on necroptosis of U937 cells (TSZ-induced, CellTiter-Glo). It counts as cell-based. The settings on record: TSZ (hTNF-α, SM-164, Z-VAD-FMK) 20 hours. The method, boiled down:
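U937 cells were pretreated 15 min with compound, then necroptosis was triggered with TSZ (Z-VAD-FMK, hTNF-α, SM-164) for 20 h at 37° C. Viability was read as ATP by CellTiter-Glo luminescence, and inhibition (%) was taken relative to no-TSZ and TSZ-only wells.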
(In ATP-based viability assays light output follows the ATP content of the culture.)

In general, pEC50 refers to −log10 of the EC50, conventionally taken in molar units. The inhibition is how much of the control response was suppressed.

pEC50: −log10 of the molar value.

On to `C[C@@H](NC(=O)C(=O)N[C@H]1COc2ccc(C#CC3CCN(C)CC3)cc2N(C)C1=O)c1ccccc1` [Example 136, N^1-((S)-5-methyl-7-((1-methylpiperidin-4-yl)ethynyl)-4-oxo-2,3,4,5-tetrahydrobenzo[b][1,4]oxazepin-3-yl)-N^2-((R)-1-phenylethyl)oxalamide], for which the pEC50 in assay [1] was > 7.00. Besides, the inhibition at 1 µM in assay [2] lay in the range of 25 to 49%. For the same compound, the “Inhibition rate range of compounds (1 μM) on U937 cell necroptosis” value (“Inhibition rate range of compounds” for short) in assay [3] is on record as “A (A: ≥90%)”.
For `C[C@@H](NC(=O)C(=O)N[C@H]1COc2ccc(C#CCN3CCNCC3)cc2N(C)C1=O)c1ccccc1` [Example 142, N^1-((S)-5-methyl-4-oxo-7-(3-(piperazin-1-yl)prop-1-yn-1-yl)-2,3,4,5-tetrahydrobenzo[b][1,4]oxazepin-3-yl)-N^2-((R)-1-phenylethyl)oxalamide], the pEC50 in assay [1] is > 7.00. For the same compound, the inhibition at 1 µM in assay [2] is ≥ 75%. Further, in assay [3], the “Inhibition rate range of compounds” value is recorded as “A (A: ≥90%)”.
Taken in the same sequence, the figures for `CC(=O)N1CCN(CC#Cc2ccc3c(c2)N(C)C(=O)[C@@H](NC(=O)C(=O)N[C@H](C)c2ccccc2)CO3)CC1` [Example 143, N^1-((S)-7-(3-(4-acetylpiperazin-1-yl)prop-1-yn-1-yl)-5-methyl-4-oxo-2,3,4,5-tetrahydrobenzo[b][1,4]oxazepin-3-yl)-N^2-((R)-1-phenylethyl)oxalamide] were > 7.00, ≥ 75% and “A (A: ≥90%)”.
Taken in the same sequence, the figures for `C[C@@H](NC(=O)C(=O)N[C@H]1COc2ccc(C#CC3CN(C)C3)cc2N(C)C1=O)c1ccccc1` [Example 147, N^1-((S)-5-methyl-7-((1-methylazetidin-3-yl)ethynyl)-4-oxo-2,3,4,5-tetrahydrobenzo[b][1,4]oxazepin-3-yl)-N^2-((R)-1-phenylethyl)oxalamide] were > 7.00, ≥ 75% and “A (A: ≥90%)”.
Consider `C=CC(=O)N1CC(C#Cc2ccc3c(c2)N(C)C(=O)[C@@H](NC(=O)C(=O)N[C@H](C)c2ccccc2)CO3)C1` [Example 149, N^1-((S)-7-((1-acryloylazetidin-3-yl)ethynyl)-5-methyl-4-oxo-2,3,4,5-tetrahydrobenzo[b][1,4]oxazepin-3-yl)-N^2-((R)-1-phenylethyl)oxalamide], for which the pEC50 in assay [1] is > 7.00. Moreover, the inhibition at 1 µM in assay [2] was ≥ 75%. Also, the “Inhibition rate range of compounds” value in assay [3] is “A (A: ≥90%)”.
With `C[C@@H](NC(=O)C(=O)N[C@H]1COc2ccc(C#CC3CN(N=O)C3)cc2N(C)C1=O)c1ccccc1` [Example 151, N^1-((S)-5-methyl-7-((1-nitrosoazetidin-3-yl)ethynyl)-4-oxo-2,3,4,5-tetrahydrobenzo[b][1,4]oxazepin-3-yl)-N^2-((R)-1-phenylethyl)oxalamide], the pEC50 in assay [1] was > 7.00. The inhibition at 1 µM in assay [2] was 25 to 49%. Further, in assay [3], the “Inhibition rate range of compounds” value is listed as “A (A: ≥90%)”.
For `C[C@@H](Cc1ccccc1)NC(=O)C(=O)N[C@H]1COc2ccc(C#CCCO)cc2N(C)C1=O` [Example 152, N^1-((S)-7-(4-hydroxybut-1-yn-1-yl)-5-methyl-4-oxo-2,3,4,5-tetrahydrobenzo[b][1,4]oxazepin-3-yl)-N^2-((S)-1-phenylpropan-2-yl)oxalamide], in that order: 6.30 to 7.00, 50 to 74% and “A (A: ≥90%)”.
Regarding `C[C@H](Cc1ccccc1)NC(=O)C(=O)N[C@H]1COc2ccc(C#CCCO)cc2N(C)C1=O` [Example 153, N^1-((S)-7-(4-hydroxybut-1-yn-1-yl)-5-methyl-4-oxo-2,3,4,5-tetrahydrobenzo[b][1,4]oxazepin-3-yl)-N^2-((R)-1-phenylpropan-2-yl)oxalamide], in assay [1], the pEC50 is 6.30 to 7.00. Besides, the inhibition at 1 µM in assay [2] fell in the range of 50 to 74%. Also, the “Inhibition rate range of compounds” value in assay [3] was “A (A: ≥90%)”.
For `CN1C(=O)[C@@H](NC(=O)C(=O)NC(C)(C)c2ccccc2)COc2ccc(C#CCN3CCOCC3)cc21` [Example 160, (S)—N^1-(5-methyl-7-(3-morpholinoprop-1-yn-1-yl)-4-oxo-2,3,4,5-tetrahydrobenzo[b][1,4]oxazepin-3-yl)-N^2-(2-phenylpropan-2-yl)oxalamide], in that order: > 7.00, ≥ 75% and “A (A: ≥90%)”.
Taken in the same sequence, the figures for `C[C@@H](NC(=O)C(=O)N[C@H]1COc2ccc(C#CC[N+]3([O-])CCOCC3)cc2N(C)C1=O)c1ccccc1` [Example 161, 4-(3-((S)-5-methyl-4-oxo-3-(2-oxo-2-(((R)-1-phenylethyl)amino)acetamido)-2,3,4,5-tetrahydrobenzo[b][1,4]oxazepin-7-yl)prop-2-yn-1-yl) morpholine 4-oxide] were > 7.00, 50 to 74% and “A (A: ≥90%)”.
In the case of `Cc1ncsc1-c1ccc(CNC(=O)[C@@H]2C[C@@H](O)CN2C(=O)[C@@H](NC(=O)COCCOCCN2CCN(CC#Cc3ccc4c(c3)N(C)C(=O)[C@@H](NC(=O)C(=O)N[C@H](C)c3ccccc3)CO4)CC2)C(C)(C)C)cc1` [Example 162, N^1-((S)-7-(3-(4-(2-(2-(2-(((S)-1-((2S,4R)-4-hydroxy-2-((4-(4-methylthiazol-5-yl)benzyl)carbamoyl)pyrrolidin-1-yl)-3,3-dimethyl-1-oxobutan-2-yl)amino)-2-oxoethoxy)ethoxy)ethyl)piperazin-1-yl)prop-1-yn-1-yl)-5-methyl-4-oxo-2,3,4,5-tetrahydrobenzo[b][1,4]oxazepin-3-yl)-N^2-((R)-1-phenylethyl)oxalamide], in assay [1], the pEC50 was 6.30 to 7.00. For the same compound, the inhibition at 1 µM in assay [2] was ≥ 75%. Further, the “Inhibition rate range of compounds” value in assay [3] is “A (A: ≥90%)”.
Taken in the same sequence, the figures for `Cc1ncsc1-c1ccc(CNC(=O)[C@@H]2C[C@@H](O)CN2C(=O)[C@@H](NC(=O)CCOCCOCCOCCN2CCN(CC#Cc3ccc4c(c3)N(C)C(=O)[C@@H](NC(=O)C(=O)N[C@H](C)c3ccccc3)CO4)CC2)C(C)(C)C)cc1` [Example 163, N^1-((S)-7-(3-(4-((S)-14-((2S,4R)-4-hydroxy-2-((4-(4-methylthiazol-5-yl)benzyl)carbamoyl)pyrrolidine-1-carbonyl)-15,15-dimethyl-12-oxo-3,6,9-trioxa-13-azahexadecyl)piperazin-1-yl)prop-1-yn-1-yl)-5-methyl-4-oxo-2,3,4,5-tetrahydrobenzo[b][1,4]oxazepin-3-yl)-N^2-((R)-1-phenylethyl)oxalamide] were > 7.00, ≥ 75% and “A (A: ≥90%)”.
For `C[C@@H](NC(=O)C(=O)N[C@H]1CN(C)c2ccc(C#CCN3CCOCC3)cc2N(C)C1=O)c1ccccc1` [Example 166, N^1-((S)-1,5-dimethyl-8-(3-morpholinoprop-1-yn-1-yl)-2-oxo-2,3,4,5-tetrahydro-1H-benzo[b][1,4]diazepin-3-yl)-N^2-((R)-1-phenylethyl)oxalamide], in that order: > 7.00, 25 to 49% and “A (A: ≥90%)”.

The values above are taken from patent publication US20250368633A1, “AZEPINE FUSED RING COMPOUND AS RIPK1 INHIBITOR AND USE THEREOF” (ARTIVILA BIOPHARMA, priority 2022, published 2025).
